The values that follow are results of earlier work, collected in patent publication US20250339472A1 (priority 2024, published 2025).

For data set [1] the following is noted: dog, in vivo.
The target in the next data set is acetylcholinesterase (Homo sapiens, UniProt P22303).

Where two headings read alike, the source gives them in different places.

Sequence of acetylcholinesterase (P22303 32-614, species assumed): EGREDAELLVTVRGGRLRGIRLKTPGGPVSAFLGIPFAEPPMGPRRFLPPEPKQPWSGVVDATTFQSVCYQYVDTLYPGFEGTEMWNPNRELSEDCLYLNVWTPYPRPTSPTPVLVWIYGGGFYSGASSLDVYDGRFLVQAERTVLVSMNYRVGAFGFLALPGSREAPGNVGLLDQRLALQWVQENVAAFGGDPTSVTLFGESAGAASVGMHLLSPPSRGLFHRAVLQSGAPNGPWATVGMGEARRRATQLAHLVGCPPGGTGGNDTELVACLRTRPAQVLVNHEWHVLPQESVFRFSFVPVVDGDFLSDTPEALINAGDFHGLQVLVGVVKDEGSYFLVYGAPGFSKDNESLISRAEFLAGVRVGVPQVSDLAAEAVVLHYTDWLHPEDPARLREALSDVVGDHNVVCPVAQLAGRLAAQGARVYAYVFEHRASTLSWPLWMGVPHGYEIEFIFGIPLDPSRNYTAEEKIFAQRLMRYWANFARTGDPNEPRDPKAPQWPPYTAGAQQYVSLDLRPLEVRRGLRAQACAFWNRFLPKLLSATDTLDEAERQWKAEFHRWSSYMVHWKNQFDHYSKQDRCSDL

With `CC1=C(/C=C/C(C)=C/C=C/C(C)=C/C=C/C=C(C)/C=C/C=C(C)/C=C/C2=C(C)C(=O)[C@@H](O)CC2(C)C)C(C)(C)C[C@H](O)C1=O` [Astaxanthin—AstaReal®, Astaxanthin], the efficacy levels in data set [1] is given as 0.3 mg/kg/day. As to `COc1cc(/C=C/C(=O)CC(=O)/C=C/c2ccc(O)c(OC)c2)ccc1O` [Curcumin], on acetylcholinesterase, the “inhibition of acetylcholinesterase activity” value is on record as “inhibits”. For Hyaluronic Acid, the Safety levels runs as follows: (more than 26 kg body weight) 54 mg of HA per day; (up to 26 kg body weight) 27 mg of HA per day.
